From patent publication US9957264B2 (Merck Sharp & Dohme Corp., priority 2013, dated 2018)

Columns and labels:
[1] = target: JAK2 (recombinant purified GST-tagged catalytic domain) (Homo sapiens (Human), UniProt O60674); test: Jak Biochemical HTRF Assay (JAK2); conditions: [ATP] 8.5 μM
Experimental: Jak Biochemical HTRF Assay Protocol
The ability of compounds to inhibit the activity of JAK1, JAK2, JAK3, and Tyk2 was measured using a recombinant purified GST-tagged catalytic domain for each enzyme (Invitrogen JAK1 #M4290, JAK2 #M4290, JAK3 #M4290, Tyk2 #M4290) in an HTRF format biochemical assay. […] The basic assay protocol is as follows: First, 250 nL of diluted compounds in DMSO were dispensed into the wells of a dry 384-well Black plate (Greiner #781076) using a Labcyte Echo 555 acoustic dispenser. Subsequent reagent additions employed an Agilent Bravo. […] After equilibration, 2 μL of 10×ATP in 1× assay buffer was added to initiate the kinase reaction and the plates were shaken and then incubated at room temperature for 120 minutes. […] Plates were shaken and centrifuged and then incubated 60 minutes at room temperature and then read on a Perkin Elmer Envision (λex=337 nm, λem=665 and 615 nm, TRF delay time=20 μs). HTRF signal=10,000*665 nm reading/615 nm reading. After normalization to untreated controls, the percent inhibition of the HTRF signal at each compound concentration was calculated. The plot of percent inhibition versus the log of compound concentration was fit with a 4-parameter dose response equation to calculate IC50 values.
Final reaction conditions were:
Examples of the instant invention were evaluated in JAK1 and JAK2 in vitro binding assays as described above.

[2] = target: JAK1 (recombinant purified GST-tagged catalytic domain) (Homo sapiens (Human), UniProt P23458); test: Jak Biochemical HTRF Assay (JAK1); conditions: [ATP] 31.8 μM
How it was run: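 Read-out is the 665/615 nm time-resolved FRET ratio from Eu-pY20 antibody and streptavidin-Dylight 650 bound to phosphorylated biotin-peptide. Reactions ran 120 min at room temperature after ATP start. Inhibition normalized to untreated controls gave IC50 via 4-parameter fit.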

Sequence of JAK1 (recombinant purified GST-tagged catalytic domain) (P23458 875-1153): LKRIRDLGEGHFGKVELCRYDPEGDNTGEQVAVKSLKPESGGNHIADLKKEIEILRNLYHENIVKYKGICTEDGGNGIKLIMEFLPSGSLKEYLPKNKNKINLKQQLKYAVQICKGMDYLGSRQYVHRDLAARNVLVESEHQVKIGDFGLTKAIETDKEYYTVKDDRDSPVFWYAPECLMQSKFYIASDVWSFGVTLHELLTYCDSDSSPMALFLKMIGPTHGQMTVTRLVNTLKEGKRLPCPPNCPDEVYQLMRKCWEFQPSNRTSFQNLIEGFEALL
Sequence of JAK2 (recombinant purified GST-tagged catalytic domain) (O60674 849-1124): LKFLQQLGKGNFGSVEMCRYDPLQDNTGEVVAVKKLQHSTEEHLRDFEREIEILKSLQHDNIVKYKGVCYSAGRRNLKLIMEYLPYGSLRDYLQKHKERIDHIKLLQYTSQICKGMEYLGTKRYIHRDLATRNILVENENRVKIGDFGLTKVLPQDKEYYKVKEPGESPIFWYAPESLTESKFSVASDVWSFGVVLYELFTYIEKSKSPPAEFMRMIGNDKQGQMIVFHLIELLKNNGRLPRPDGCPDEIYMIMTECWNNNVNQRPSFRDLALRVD

Compound | IC50 [1] | IC50 [2]
COC(=O)[C@H]1CC[C@](CC#N)(n2nc(Nc3ccc(S(C)(=O)=O)cc3)c3c(=O)[nH]ccc32)CO1 (single isomer, unassigned) [Example 5-34, (2S,5S or 2R,5R)-methyl 5-(cyanomethyl)-5-(3-((4-(methylsulfonyl)phenyl)amino)-4-oxo-4,5-dihydro-1H-pyrazolo[4,3-c]pyridin-1-yl)tetrahydro-2H-pyran-2-carboxylate] | 22.6 nM | 4.74 nM
CC(C)(C)OC(=O)[C@@H]1CC[C@](CC#N)(n2nc(Nc3ccc(S(C)(=O)=O)cc3)c3c(=O)[nH]ccc32)CO1 (single isomer, unassigned) [Example 5-37, (2R,5S or 2S,5R)-tert-butyl 5-(cyanomethyl)-5-(3-((4-(methylsulfonyl)phenyl)amino)-4-oxo-4,5-dihydro-1H-pyrazolo[4,3-c]pyridin-1-yl)tetrahydro-2H-pyran-2-carboxylate] | 17.1 nM | 1.93 nM
CC(C)(C)OC(=O)[C@H]1CC[C@@](CC#N)(n2nc(Nc3ccc([C@@H](N)C(F)(F)F)cc3)c3c(=O)[nH]ccc32)CO1 (single isomer, unassigned) [Example 5-50, (2R,5S)-tert-butyl 5-(3-((4-((R or S)-1-amino-2,2,2-trifluoroethyl)phenyl)amino)-4-oxo-4,5-dihydro-1H-pyrazolo[4,3-c]pyridin-1-yl)-5-(cyanomethyl) tetrahydro-2H-pyran-2-carboxylate] | 34.5 nM | 11.8 nM
CC(C)(C)OC(=O)[C@@H]1CC[C@@](CC#N)(n2nc(Nc3ccc([C@@H](N)C(F)(F)F)cc3)c3c(=O)[nH]ccc32)CO1 (single isomer, unassigned) [Example 5-51, (2S,5S)-tert-butyl 5-(3-((4-((R or S)-1-amino-2,2,2-trifluoroethyl)phenyl)amino)-4-oxo-4,5-dihydro-1H-pyrazolo [4,3-c]pyridin-1-yl)-5-(cyanomethyl)tetrahydro-2H-pyran-2-carboxylate] | 0.49 nM | 0.18 nM
CC(C)(C)OC(=O)[C@H]1CC[C@@](CC#N)(n2nc(Nc3ccc([C@H](N)C(F)(F)F)cc3)c3c(=O)[nH]ccc32)CO1 (single isomer, unassigned) [Example 5-52, (2R,5S)-tert-butyl 5-(3-((4-((S or R)-1-amino-2,2,2-trifluoroethyl)phenyl)amino)-4-oxo-4,5-dihydro-1H-pyrazolo[4,3-c]pyridin-1-yl)-5-(cyanomethyl) tetrahydro-2H-pyran-2-carboxylate] | 30.3 nM | 11.7 nM
CC(C)(C)OC(=O)[C@@H]1CC[C@@](CC#N)(n2nc(Nc3ccc([C@H](N)C(F)(F)F)cc3)c3c(=O)[nH]ccc32)CO1 (single isomer, unassigned) [Example 5-53, (2S,5S)-tert-butyl 5-(3-((4-((S or R)-1-amino-2,2,2-trifluoroethyl)phenyl)amino)-4-oxo-4,5-dihydro-1H-pyrazolo[4,3-c]pyridin-1-yl)-5-(cyanomethyl) tetrahydro-2H-pyran-2-carboxylate] | 0.57 nM | 0.19 nM
CC(O)(c1ccc(Nc2nn([C@@]3(CC#N)CCCC[C@H]3F)c3cc[nH]c(=O)c23)cc1)C(F)(F)F (single isomer, unassigned) [Example 5-85, {(1R,2R)-2-fluoro-1-[4-oxo-3-({4-[(1S or 1R)-2,2,2-trifluoro-1-hydroxy-1-methylethyl]phenyl}amino)-4,5-dihydro-1H-pyrazolo[4,3-c]pyridin-1-yl]cyclohexyl}acetonitrile] | 0.17 nM | 0.07 nM
CC(O)(c1ccc(Nc2nn([C@@]3(CC#N)CCCC[C@H]3F)c3cc[nH]c(=O)c23)cc1)C(F)(F)F (single isomer, unassigned) [Example 5-86, {(1R,2R)-2-fluoro-1-[4-oxo-3-({4-[(1R or 1S)-2,2,2-trifluoro-1-hydroxy-1-methylethyl]phenyl}amino)-4,5-dihydro-1H-pyrazolo[4,3-c]pyridin-1-yl]cyclohexyl}acetonitrile] | 0.11 nM | 0.07 nM
N#CCC1(n2nc(Nc3ccc(C(N)C(F)(F)F)cc3)c3c(=O)[nH]ccc32)CCCC1 (single isomer, unassigned) [Example 5-88, (R or S)-2-(1-(3-((4-(1-amino-2,2,2-trifluoroethyl)phenyl)amino)-4-oxo-4,5-dihydro-1H-pyrazolo[4,3-c]pyridin-1-yl)cyclopentyl)acetonitrile] | 1.56 nM | 0.46 nM
N#CCC1(n2nc(Nc3ccc(C(N)C(F)(F)F)cc3)c3c(=O)[nH]ccc32)CCCC1 (single isomer, unassigned) [Example 5-89, (R or S)-2-(1-(3-((4-(1-amino-2,2,2-trifluoroethyl)phenyl)amino)-4-oxo-4,5-dihydro-1H-pyrazolo[4,3-c]pyridin-1-yl)cyclopentyl)acetonitrile] | 1.74 nM | 0.5 nM
CC1CCN1S(=O)(=O)c1ccc(Nc2nn([C@]3(CC#N)CCCOC3)c3cc[nH]c(=O)c23)cc1 (single isomer, unassigned) [Example 5-108, [(3S)-3-{3-[(4-{[(2R or 2S)-2-methylazetidin-1-yl]sulfonyl}phenyl)amino]-4-oxo-4,5-dihydro-1H-pyrazolo[4,3-c]pyridin-1-yl}tetrahydro-2H-pyran-3-yl]acetonitrile] | 0.23 nM | 0.12 nM
CC1CCN1S(=O)(=O)c1ccc(Nc2nn([C@]3(CC#N)CCCOC3)c3cc[nH]c(=O)c23)cc1 (single isomer, unassigned) [Example 5-109, [(3S)-3-{3-[(4-{[(2S or 2R)-2-methylazetidin-1-yl]sulfonyl}phenyl)amino]-4-oxo-4,5-dihydro-1H-pyrazolo[4,3-c]pyridin-1-yl}tetrahydro-2H-pyran-3-yl]acetonitrile] | 0.29 nM | 0.25 nM
CC(O)(c1ccc(Nc2nn([C@]3(CC#N)CCCOC3)c3cc[nH]c(=O)c23)cc1)C(F)(F)F (single isomer, unassigned) [Example 5-110, {(3S)-3-[4-oxo-3-({4-[(1S or 1R)-2,2,2-trifluoro-1-hydroxy-1-methylethyl]phenyl}amino)-4,5-dihydro-1H-pyrazolo[4,3-c]pyridin-1-yl]tetrahydro-2H-pyran-3-yl}acetonitrile] | 0.59 nM | 0.16 nM
CC(O)(c1ccc(Nc2nn([C@]3(CC#N)CCCOC3)c3cc[nH]c(=O)c23)cc1)C(F)(F)F (single isomer, unassigned) [Example 5-111, {(3S)-3-[4-oxo-3-({4-[(1R or 1S)-2,2,2-trifluoro-1-hydroxy-1-methylethyl]phenyl}amino)-4,5-dihydro-1H-pyrazolo[4,3-c]pyridin-1-yl]tetrahydro-2H-pyran-3-yl}acetonitrile] | 0.35 nM | 0.09 nM
CCOC(=O)C(C)(C)C(O)(c1ccc(Nc2nn([C@]3(CC#N)CCCOC3)c3cc[nH]c(=O)c23)cc1)C(F)(F)F (single isomer, unassigned) [Example 5-112, (S or R)-ethyl 3-(4-((1-((3S)-3-(cyanomethyl)tetrahydro-2H-pyran-3-yl)-4-oxo-4,5-dihydro-1H-pyrazolo[4,3-c]pyridin-3-yl)amino)phenyl)-4,4,4-trifluoro-3-hydroxy-2,2-dimethylbutanoate] | 2.53 nM | 1.07 nM
CCOC(=O)C(C)(C)C(O)(c1ccc(Nc2nn([C@]3(CC#N)CCCOC3)c3cc[nH]c(=O)c23)cc1)C(F)(F)F (single isomer, unassigned) [Example 5-113, (S or R)-ethyl 3-(4-((1-((3S)-3-(cyanomethyl)tetrahydro-2H-pyran-3-yl)-4-oxo-4,5-dihydro-1H-pyrazolo[4,3-c]pyridin-3-yl)amino)phenyl)-4,4,4-trifluoro-3-hydroxy-2,2-dimethylbutanoate] | 0.34 nM | 0.28 nM
Cc1cc(Nc2nn([C@]3(CC#N)CCCOC3)c3cc[nH]c(=O)c23)ccc1C(=O)N1CCC(O)(C(F)(F)F)C1 (single isomer, unassigned) [Example 5-114, 2-((S)-3-(3-((4-((S or R)-3-hydroxy-3-(trifluoromethyl)pyrrolidine-1-carbonyl)-3-methylphenyl)amino)-4-oxo-4,5-dihydro-1H-pyrazolo[4,3-c]pyridin-1-yl)tetrahydro-2H-pyran-3-yl)acetonitrile] | 1.31 nM | 0.33 nM
COC(=O)N1CCC(CC#N)(n2nc(Nc3ccc(C(C)(O)C(F)(F)F)cc3)c3c(=O)[nH]ccc32)CC1 (single isomer, unassigned) [Example 5-141, (R or S)-methyl 4-(cyanomethyl)-4-(4-oxo-3-((4-(1,1,1-trifluoro-2-hydroxypropan-2-yl)phenyl)amino)-4,5-dihydro-1H-pyrazolo[4,3-c]pyridin-1-yl)piperidine-1-carboxylate] | 0.43 nM | 0.18 nM
